Laboratory results published in US20090264415A2 (priority 2004, published 2009).

The compounds below were run on peripheral blood mononuclear cells (PBMC) stimulated with allogeneic PBMC or EBV-transformed human B cells (RPMI1788) (assay: Mixed lymphocyte reaction (MLR) assay). Settings: Homo sapiens, RPMI-1788; MLR assay of example 319; read-out: MLR IC50.
Format: cell-based
Method in brief: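 Responder PBMC co-cultured in triplicate with 30 Gy-irradiated allogeneic PBMC or RPMI1788 B cells plus compound (DMSO stock 10 mM, diluted in medium). After 5 days at 37° C, 1 μCi [3H]-thymidine added for 16 h more; incorporated cpm counted and proliferation inhibition calculated.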
In the case of `Cc1cccc(NC(=O)N2CCN(c3nc(C)nc4ccc(-c5ccc(F)cc5)nc34)CC2)c1` [Example 531, 2-methyl-4-[N-(3-methylphenylcarbamoyl)piperazin-1-yl]-6-(4-fluorophenyl)-pyrido[3,2-d]pyrimidine], the IC50 is reported as 84 nM.
Work on `Cc1cccc(NC(=O)N2CCN(c3nc(-c4ccccc4)nc4ccc(-c5ccc(F)cc5)nc34)CC2)c1` [Example 533, 2-phenyl-4-[N-(3-methylphenylcarbamoyl)piperazin-1-yl]-6-(4-fluorophenyl)-pyrido[3,2-d]pyrimidine] yielded an IC50 of 2600 nM.
Compound `Cc1cccc(NC(=O)N2CCN(c3nc(CN(C)C)nc4ccc(-c5ccc(F)cc5)nc34)CC2)c1` [Example 537, 2-(N,N-dimethylamino)methyl-4-[N-(3-methylphenylcarbamoyl)piperazin-1-yl]-6-(4-fluorophenyl)-pyrido[3,2-d]pyrimidine] has an IC50 of 3300 nM.
`COCCNCc1nc(N2CCN(C(=O)Nc3cccc(C)c3)CC2)c2nc(-c3ccc(F)cc3)ccc2n1` [Example 538, 2-(N-methoxyethylamino)methyl-4-[N-(3-methylphenylcarbamoyl)piperazin-1-yl]-6-(4-fluorophenyl)-pyrido[3,2-d]pyrimidine] was tested, and the IC50 was 340 nM.
In the case of `Cc1cccc(NC(=O)N2CCN(c3nc(CNC4CC4)nc4ccc(-c5ccc(F)cc5)nc34)CC2)c1` [Example 539, 2-(N-cyclopropylamino)methyl-4-[N-(3-methylphenylcarbamoyl)piperazin-1-yl]-6-(4-fluorophenyl)-pyrido[3,2-d]pyrimidine], the IC50 is reported as 700 nM.
`Cc1cccc(NC(=O)N2CCN(c3nc(N)nc4ccc(Cl)nc34)CC2)c1` [Example 541, 2-amino-4-[(3-methylphenylcarbamoyl)-piperazin-1-yl]-6-chloro-pyrido[3,2-d]pyrimidine] showed an IC50 of 60 nM.
Compound `Cc1cccc(NC(=O)N2CCN(c3nc(N)nc4ccc(-c5ccncc5)nc34)CC2)c1` [Example 542, 2-amino-4-[(3-methylphenylcarbamoyl)-piperazin-1-yl]-6-(4-pyridyl)-pyrido[3,2-d]pyrimidine] has an IC50 of 5 nM.
`Cc1cccc(NC(=O)N2CCN(c3nc(N)nc4ccc(-c5ccc(C#N)cc5)nc34)CC2)c1` [Example 543, 2-amino-4-[(3-methylphenylcarbamoyl)-piperazin-1-yl]-6-(4-cyano-phenyl)-pyrido[3,2-d]pyrimidine] was tested, and the IC50 was 30 nM.
`Cc1cccc(NC(=O)N2CCN(c3nc(N)nc4ccc(-c5cccc(C#N)c5)nc34)CC2)c1` [Example 545, 2-amino-4-[(3-methylphenylcarbamoyl)-piperazin-1-yl]-6-(3-cyanophenyl)-pyrido[3,2-d]pyrimidine] was tested, and the IC50 was 30 nM.
In the case of `Cc1cccc(NC(=O)N2CCN(c3nc(N)nc4ccc(-c5ccccc5C#N)nc34)CC2)c1` [Example 546, 2-amino-4-[(3-methylphenylcarbamoyl)-piperazin-1-yl]-6-(2-cyano-phenyl)-pyrido[3,2-d]pyrimidine], the IC50 is reported as 4 nM.
With `Cc1cccc(NC(=O)N2CCN(c3nc(N)nc4ccc(-c5ccccc5F)nc34)CC2)c1` [Example 547, 2-amino-4-[(3-methylphenylcarbamoyl)-piperazin-1-yl]-6-(2-fluoro-phenyl)-pyrido[3,2-d]pyrimidine] the IC50 was 60 nM.
For `Cc1cccc(NC(=O)N2CCN(c3nc(N)nc4ccc(-c5ccc(C(F)(F)F)cc5)nc34)CC2)c1` [Example 548, 2-amino-4-[(3-methylphenylcarbamoyl)-piperazin-1-yl]-6-(4-trifluoromethylphenyl)-pyrido[3,2-d]pyrimidine], the IC50 was 170 nM.
`Cc1cccc(NC(=O)N2CCN(c3nc(N)nc4ccc(-c5ccccc5Cl)nc34)CC2)c1` [Example 549, 2-amino-4-[(3-methylphenylcarbamoyl)-piperazin-1-yl]-6-(2-chlorophenyl)-pyrido[3,2-d]pyrimidine] gave an IC50 of 80 nM.
`Cc1cccc(NC(=O)N2CCN(c3nc(N)nc4ccc(-c5c(C)cccc5C)nc34)CC2)c1` [Example 550, 2-amino-4-[(3-methylphenylcarbamoyl)-piperazin-1-yl]-6-(2,6-dimethyl-phenyl)-pyrido[3,2-d]pyrimidine] gave an IC50 of 3500 nM.
